From the NIST ThermoML archive (doi:10.1016/j.fluid.2008.03.015)
Where “and” joins values, the source holds several entries; their conditions need not be identical. Equal entries are not always repeated. Numbers after ± are expanded uncertainties.

Conditions: Liquid, Closed cell (Static) method

CC(C)OC(C)C [diisopropyl ether]
Conditions | vapor or sublimation pressure
284.93 K | 10.74 ± 0.11 kPa and 10.75 ± 0.11 kPa
294.9 K | 17.21 ± 0.18 kPa
294.91 K | 17.21 ± 0.18 kPa
304.87 K | 26.57 ± 0.27 kPa
304.89 K | 26.58 ± 0.27 kPa
314.86 K | 39.71 ± 0.41 kPa
314.87 K | 39.72 ± 0.41 kPa
324.85 K | 57.64 ± 0.59 kPa
324.87 K | 57.65 ± 0.59 kPa
334.85 K | 81.41 ± 0.83 kPa and 81.42 ± 0.83 kPa
344.84 K | 112.36 ± 1.1 kPa
344.85 K | 112.39 ± 1.1 kPa
354.87 K | 151.81 ± 1.5 kPa
354.88 K | 151.82 ± 1.5 kPa

ClCCCl [1,2-dichloroethane]
Conditions | vapor or sublimation pressure
284.86 K | 5.38 ± 0.06 kPa
284.87 K | 5.37 ± 0.06 kPa
294.83 K | 8.96 ± 0.09 kPa
294.84 K | 8.95 ± 0.09 kPa
304.82 K | 14.33 ± 0.15 kPa and 14.32 ± 0.15 kPa
314.81 K | 22.18 ± 0.23 kPa
314.83 K | 22.18 ± 0.23 kPa
324.82 K | 33.28 ± 0.34 kPa
324.83 K | 33.27 ± 0.34 kPa
334.79 K | 48.45 ± 0.49 kPa
334.82 K | 48.46 ± 0.49 kPa
344.81 K | 67.97 ± 0.69 kPa
344.82 K | 67.98 ± 0.69 kPa
354.89 K | 94.95 ± 0.97 kPa and 94.94 ± 0.97 kPa

COC(C)(C)C [2-methoxy-2-methylpropane]
Conditions | vapor or sublimation pressure
274.9 K | 11.59 ± 0.12 kPa
274.91 K | 11.59 ± 0.12 kPa
284.82 K | 18.55 ± 0.19 kPa
294.8 K | 28.78 ± 0.29 kPa
294.81 K | 28.78 ± 0.29 kPa
304.79 K | 43.24 ± 0.44 kPa and 43.26 ± 0.44 kPa
314.75 K | 62.95 ± 0.64 kPa
314.76 K | 62.97 ± 0.64 kPa
324.9 K | 89.66 ± 0.91 kPa and 89.69 ± 0.91 kPa
334.85 K | 124.02 ± 1.3 kPa
344.84 K | 167.14 ± 1.7 kPa
344.85 K | 167.57 ± 1.7 kPa
354.82 K | 221.79 ± 2.2 kPa and 221.39 ± 2.2 kPa

CCOCC [diethyl ether]
Conditions | vapor or sublimation pressure
255.47 K | 10.11 ± 0.1 kPa
255.48 K | 10.13 ± 0.1 kPa
255.5 K | 10.14 ± 0.1 kPa
265.44 K | 17.06 ± 0.17 kPa
265.45 K | 17.07 ± 0.17 kPa
274.86 K | 26.9 ± 0.27 kPa
274.87 K | 26.91 ± 0.27 kPa
284.83 K | 41.98 ± 0.43 kPa
284.84 K | 42 ± 0.43 kPa
294.77 K | 62.89 ± 0.64 kPa
294.78 K | 62.93 ± 0.64 kPa
304.75 K | 91.58 ± 0.93 kPa and 91.56 ± 0.93 kPa
304.76 K | 91.6 ± 0.93 kPa
314.74 K | 129.3 ± 1.3 kPa and 129.45 ± 1.3 kPa
314.75 K | 129.42 ± 1.3 kPa
324.89 K | 179.51 ± 1.8 kPa and 179.65 ± 1.8 kPa and 179.77 ± 1.8 kPa
